This is an account of results in ChEMBL document CHEMBL3045889 (Pest Manag Sci, 2012).

The experiment deals with Fusarium graminearum. Nature of the experiment: Antifungal activity against Fusarium graminearum JT04 assessed as inhibition of mycelial growth. The experiment is classed as functional, organism-based.

A value given as a limit tells only on which side of the number the result lay.

One may read the MIC as the lowest concentration found to suppress growth. As for `COC(=O)Nc1nc2ccccc2[nH]1` [CARBENDAZIM], the MIC is more than 200 µg/mL.
